Reference: US20130231305A1, “Method of Modulating Protein 14-3-3 Functionality By Facilitating or Inhibiting Phosphorylation” (Medvet Science Pty. Ltd., priority 2010, published 2013)
Residue numbers refer to the chain shown, from its start.

What was measured:
14-3-3 isoforms = assay: Phosphorylation of recombinant 14-3-3 isoforms by PKA catalytic subunit; format: biochemical; conditions: 50 μM in 0.1% ethanol
Description: FIG. 3 is an image depicting that sphingosine is required for the phosphorylation of multiple 14-3-3 isoforms in the third helix. (A) Primary sequence alignment of 14-3-3 isoforms in the third helix showing conservation of a Ser phosphorylation site (shown in bold). Asterisks indicate identical amino acids. (B) Recombinant 14-3-3 isoforms were incubated with PKA catalytic subunit in the presence of 50 μM sphingosine, dimethyl-sphingosine (DMS) or FTY 720 (FTY) delivered in 0.1% ethanol (EtOH). Phosphorylated 14-3-3s were detected by autoradiography. Gels were coomassie stained to show equal loading of 14-3-3 substrate.
Substrate 14-3-3 (either 0.5 μg of purified recombinant 14-3-3, a […] of fractions from gel filtration or immunoprecipitates from 14-3-3ζ-Myc transfected COS cells) were added to reaction mixture comprising 0.2 Units of the PKA catalytic subunit, in the presences or absence of sphingolipid (delivered in 0.1% v/v ethanol) in PICA reaction buffer (20 mM MOPS, pH 7.4, 20 mM β-glycerol phosphate, 4 mM EGTA, 1 mM Na3VO4, 60 mM MgCl2, 1 mM DTT, 500 μM ATP, 2.4 μCi [^32P]γ-ATP). Reactions were incubated at 37° C. for 15 minutes. After incubation, reactions were separated on 12.5% SDS-PAGE, coomassie stained and 14-3-3 phosphorylation analysed by autoradiography.

Jurkat cells = assay: Jurkat cell apoptosis (TMRE staining, NucView caspase activity); format: cell-based; conditions: 2 μM
Text: (A) Immunoblotting of lysates from either parental Jurkat cells (Jurkat) or cells transduced with lentivirus encoding either wild type (Wt) or S58A 14-3-3ζ-Myc with either an anti-14-3-3ζ specific antibody (upper panel) or an anti-pan 14-3-3 antibody (middle panel) to compare the expression level of transduced protein. Myc immunoprecipitates were also immunoblotted with an anti-phospho 14-3-3 binding site antibody (lower panel) to detect proteins associated with 14-3-3ζ-Myc. Endogenous 14-3-3 is indicated by an open arrow and exogenous 14-3-3ζ-Myc with a closed arrow. (B) Lysates from either wild type (Wt) or S58A 14-3-3ζ-Myc expressing Jutkat cells were subjected to in vitro PKA phosphorylation in the presence (+) or absence (−) of […] and the samples immunoblotted after SDS-PAGE separation With either anti-Myc antibody (upper panel), anti-14-3-3ζ antibody (middle panel) or anti-phospho Ser58 14-3-3ζ antibody (lower panel). (C) Serum-starved Jurkat cells were treated with 2 μM FTY720 for 4 h prior to staining with TMRE and NucView™. Forward- versus side-scatter plots (FS versus SS) show the viable cell populations for FTY720 and EtOH (vehicle) treated cells which are analysed in the lower histograms for caspase activity (NucView™) versus ΔΨM (TMRE). (D and E) Jurkat cell lines expressing either wild type or S58A 14-3-3ζ-Myc by lentiviral transduction were serum-starved for 2 h and treated with either 0.1% ethanol vehicle alone (EtOH), 2 μM dimethyl-sphingosine (DMS), or 2 μM FTY720. Cells were analysed by TMRE staining at 4 h (D) or at the time points indicated (E). (D) Representative analyses of TMRE staining with forward- versus side-scatter plots inset to show the similarity in cell populations. (E) Graphical representation of TMRE analysis over time with open symbols representing vehicle (0.1% EtOH) treated cells and closed symbols representing FTY720 treated cells. […]
FIG. 11. […] Effect of TMAs on Jurkat cells after 16 hours incubation assessed by ΔΨM (TMRE) and caspase 3 activity (NucView™) analysis. […] Forward-side-scatter histograms showing cell viability are inset and caspase 3 activity as assessed by NucView™ analysis of viable cells shown. E. Examples of TMA-derivatives of FTY720 that will be analysed for effects on 14-3-3 dimer stability and apoptosis.
Having confirmed appropriate expression and behaviour of Myc-tagged wild type and S58A 14-3-3ζ in the Jurkat lines, these cells were utilised in functional studies to determine the effect of S58A 14-3-3ζ expression on cell survival in response to sphingosine analogues. […] Intriguingly, Jurkat cells expressing S58A 14-3-3ζ-Myc consistently underwent commitment to apoptosis (as detected by the loss of TMRE staining) more slowly than those expressing wild type 14-3-3ζ-Myc (FIG. 8D).

14-3-3ζ D20N mutant = target: T1, 14-3-3ζ D20N mutant (Homo sapiens, UniProt P63104, D20N); assay: Phosphorylation of D20N mutant 14-3-3ζ by PKA catalytic subunit with FTY720; format: biochemical; conditions: increasing concentrations of FTY720, FIG. 9C
T1 construct: made in house
T1 sequence (P63104 1-245 D20N): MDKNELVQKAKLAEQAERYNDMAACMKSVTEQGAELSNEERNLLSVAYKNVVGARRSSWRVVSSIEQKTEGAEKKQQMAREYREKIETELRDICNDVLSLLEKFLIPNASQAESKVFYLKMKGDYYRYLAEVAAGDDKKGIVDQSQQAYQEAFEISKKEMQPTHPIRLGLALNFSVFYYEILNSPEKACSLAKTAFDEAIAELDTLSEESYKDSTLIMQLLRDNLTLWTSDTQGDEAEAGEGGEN
Text: FIG. 9 A depicts a side view of 14-3-3ζ in space filling representation indicating the orientation of view B. The monomer units (in green and orange) and interacting phospho-peptides, (in cyan) bound in the dual amphipathic grooves are shown. B. Bottom-up view of 14-3-3ζ with the location of S58 phosphorylation site (indicated by arrows and asterisk) and key surface acidic (in yellow) and basic (in blue) residues shown. C. In vitro phosphorylation of 14-3-3ζ wild type and mutants as indicated by catalytic PKA subunit in the presence of increasing concentrations of FTY720. […] D. Mutant 14-3-3 (as indicated) was analysed by native-PAGE and Coomassie staining. The arrow indicates the migration of dimeric 14-3-3 protein. E. A schematic representation of a 14-3-3 dimer showing the buried S58 phosphorylation site in pink, D20, the residue proposed to interact with sphingolipid in yellow and the predicted salt bridge interactions involved in dimerisation. F. & G. In silico docking of FTY720 (shown in cyan in F.) and sphingosine (in pink in G.) in 14-3-3ζ dimer interface.
The dimer interface of 14-3-3 proteins lies at the bottom of the phospho-serine binding groove and comprises a central hole of around 10 Å in diameter in which the Ser58 phosphorylation site is positioned (FIG. 9B, indicated by *). […]

14-3-3ζ = target: T2, 14-3-3ζ (Homo sapiens, UniProt P63104); assay: 14-3-3 phosphorylation by PKA catalytic subunit (autoradiography); format: biochemical; conditions: increasing concentrations of FTY720, FIG. 9C
T2 construct: made in house
T2 sequence (P63104 1-245): T1 sequence (P63104 1-245 D20N) with N20D

[1] = 4 h, serum-starved Jurkat cells

CCCCCCCCc1ccc(CCC(N)(CO)CO)cc1 [FTY720]
phosphorylation of 14-3-3 isoforms by PKA catalytic subunit (14-3-3 isoforms): behaved similarly to sphingosine and DMS in modulating 14-3-3 for phosphorylation
caspase-3 activity (NucView) (Jurkat cells; [1]): activation of caspase-3
commitment to apoptosis (loss in TMRE staining) (Jurkat cells; [1]): rapid commitment to apoptosis
commitment to apoptosis in S58A versus wild type 14-3-3ζ-Myc expressing cells (TMRE) (Jurkat cells; Jurkat cells expressing S58A 14-3-3ζ-Myc): delayed mitochondrial permeability transition
phosphorylatability of D20N 14-3-3ζ by PKA catalytic subunit (14-3-3ζ D20N mutant): only weakly phosphorylatable
phosphorylatability of wild-type 14-3-3ζ by PKA catalytic subunit (14-3-3ζ): increasing phosphorylatability
